No end group written: not given here.
Experiments:
[1] = system: RAW264.7 cells; details: stimulated with LPS; cited from earlier work
Source text: (§1) One of the primary virulence factors of periodontitis, Pg-LPS, targets TLR4, which activates the NF-kB signaling pathway and triggers the secretion of inflammatory cytokines such as TNFα, IL-6, and chemokines, recruiting monocytes/macrophages to the site of infection. […] Cecropin A, a novel 37-residue cecropin-like antimicrobial ...

[2] = system: phagocytosis; details: via its effect on the cytoskeletal network; cited from earlier work
Source text: Two important functions of macrophages are to eliminate pathogens through phagocytosis and apoptosis of inflammatory cells and their subsequent clearance (efferocytosis). The present study analyzed the role of AMP, β-defensin 1, in Pg-LPS-stimulated THP-1 differentiated macrophage cells.

[3] = system: THP-1 cells; experiment: Apoptosis by flow cytometry (Annexin V & Dead Cell); assay type: cell-based, human; details: Pg-LPS 1 µg/mL alone
Description: Untreated control and Pg-LPS treated wells were also maintained. To the tubes, 100 μL of the Muse™ Annexin V & Dead Cell Reagents were added separately. The tubes were completely mixed by pipetting up and down or spinning at a medium speed for three to five seconds, followed by 20 minutes of incubation in the dark at room temperature. The cells were examined with a Flow Cytometer, gated against untreated control cells, and evaluated for apoptosis with the Muse FCS 3.0 software.
The Muse Annexin V & Dead Cell Kit is a method to analyze cells in various stages of apoptosis, where fluorescently labeled Annexin V binds to phosphatidylserine (PS), which translocates to the outer surface of the cell membrane upon the onset of apoptosis. 7-AAD is excluded from live and healthy cells and permeates late-stage apoptotic and dead cells. […] The result is depicted in Figure 9.

[4] = system: THP-1 cells; experiment: Intracellular ROS generation, DCFDA assay; assay type: cell-based, human; details: Pg-LPS 1 µg/mL alone; DCFDA 30 min, ex 470 nm, em 635 nm; untreated control 2379
Description: Untreated control and Pg-LPS treated wells were also maintained. The cells were washed with PBS, and 50 µl of Dichlorodihydrofluorescein diacetate (DCFDA) was added, followed by incubation for 30 minutes. After incubation, excess dye was removed with PBS, and fluorescence was observed using a fluorescent microscope (Olympus CKX41 with Optika Pro5 CCD camera) and quantified with a fluorimeter at 470 nm excitation and emission at […] (Qubit 3.0, Life Technologies, USA), displaying the results in arbitrary units (AU).
The effect of β-defensin 1 on ROS generation in THP-1 cells stimulated with Pg-LPS was studied. DCFDA, a fluorogenic dye, measures hydroxyl, peroxyl, and other ROS activities within the cell. After entering the cell, DCFDA is deacetylated by cellular esterases into a non-fluorescent compound. This nonfluorescent chemical is then oxidized by ROS into […] (DCF), which, upon excitation with a blue filter, emits green fluorescence. When THP-1 cells were stimulated with Pg-LPS, there was a considerable increase in fluorescence, which decreased upon treatment with β-defensin 1, as shown in Figure 7 and Table 2.

[5] = system: THP-1 differentiated macrophage cell line; experiment: Cytotoxicity evaluation of Pg-LPS by MTT method; assay type: cell-based, human; details: 24 h, 0.25-4 µg/mL
Description: The THP-1 cell line was cultured in DMEM and supplemented with 10% FBS, sodium bicarbonate, L-glutamine, and an antibiotic solution containing penicillin (100 U/mL), amphotericin B (2.5 µg/mL), and streptomycin (100 µg/mL). The cells were maintained in a 5% humidified CO2 incubator (NBS Eppendorf, Germany) at 37°C. To induce differentiation into macrophages, the THP-1 cell line was treated with 25 ng/mL phorbol 12-myristate 13-acetate (PMA) (cat. 91585, Sigma-Aldrich, USA) and incubated for 48 hours. Following incubation, the cells were seeded in a 96-well culture plate at a density of 5x10^4 cells/well and incubated for 24 hours in a humidified 5% CO2 incubator at 37°C.
After incubation of 24 hours, triplicate additions of Pg-LPS in various concentrations (0.25 µg, 0.5 µg, 1 µg, 2 µg, and 4 µg/mL) were done appropriately. […] The inhibitory concentration (IC50) value of Pg-LPS was determined by the ED50 software.
Inverted phase contrast microscopy (IPCM) using an Olympus CKX41 microscope (Olympus, Japan) equipped with an Optika Pro5 CCD camera (Optika, Italy) was utilized to directly observe the cells. Cell viability was determined using the MTT (3-(4,5-Dimethylthiazol-2-yl)-2,5-diphenyltetrazolium bromide) assay (Sigma, M-5655). […] The absorbance of this colored solution can be quantified by measuring at approximately 570 nm using a spectrophotometer. […]

[6] = system: THP-1 cells; experiment: Cell cycle distribution by flow cytometry; assay type: cell-based, human; details: Pg-LPS alone, compared to untreated control cells
Description: Untreated control and Pg-LPS stimulated cells were also maintained. The MUSE Cell Cycle Kit was added, and the manufacturer's instructions were followed.

[7] = system: endothelial cells; details: cited from earlier work
Source text: as §1

[8] = directly interacting with LPS; cited from earlier work
Source text: as §1

## Cecropin A: a novel 37-residue cecropin-like antimicrobial peptide isolated from a cecropia moth (KWKLFKKIEKVGQNIRDGIIKAGPAVAVVGQATQIAK; ends and bridges not checked; UniProt P01507 27-63, looked up)
[1]
  anti-inflammatory activities: showed anti-inflammatory activities

## Porphyromonas gingivalis lipopolysaccharide [Pg-LPS]
[2]
  effect on phagocytosis: suppresses phagocytosis
[3]; untreated control 87.25%
  live cells: 74.40%
[3]; untreated control Dead 3.65 %
  necrotic effect / Dead: 22.85%
[4]
  ROS generation, Fluorescence intensity: 10743.55 AU
[5]
  cytotoxicity (in words): dose-dependent cytotoxicity
[6]
  G0/G1 phase of the cell cycle (in words): increase in the G0/G1 phase of the cell cycle

## cathelicidin
[7]
  LPS-induced apoptosis: reducing LPS-induced apoptosis in endothelial cells
[8]
  LPS-neutralizing effect: potent LPS-neutralizing effect

Source: publication PMC10799292, “The Role of β-Defensin 1 Against Porphyromonas gingivalis Lipopolysaccharide-Mediated Inflammation in the THP-1 Cell Line” (Cureus, 2023)
